# Values quoted from earlier work in paper PMC9516332 (Frontiers in Oncology, 2022).
# Read-outs that look alike come from different tables or passages of the source.
# Key:
# [1] = molecular target: panel of 255 wild-type kinases (Homo sapiens, UniProt Q8IY84); details: NIM1K; 1 µmol/L single concentration; ref DOI: 10.1158/1535-7163.MCT-18-0877; cited from earlier work
# [2] = molecular target: panel of 255 wild-type kinases (Homo sapiens, UniProt P49137); details: kinase MAPKAPK2, 1 µmol/L single concentration, cited from earlier work
# [3] = molecular target: panel of 255 wild-type kinases (Homo sapiens, UniProt P16591); details: kinase FER, 1 µmol/L single concentration, cited from earlier work
# [4] = molecular target: panel of 255 wild-type kinases (Homo sapiens, UniProt P31751); details: AKT2 kinase assay, 1 µmol/L single concentration, cited from earlier work
# [5] = molecular target: panel of 255 wild-type kinases (Homo sapiens, UniProt Q9Y6E0); details: MST3, 1 µmol/L single concentration, cited from earlier work
# [6] = molecular target: panel of 255 wild-type kinases (Homo sapiens, UniProt P41240); details: kinase CSK, 1 µmol/L single concentration, cited from earlier work
# [7] = molecular target: panel of 255 wild-type kinases (Homo sapiens, UniProt Q9H422); details: kinase HIPK3, 1 µmol/L single concentration, cited from earlier work
# [8] = molecular target: panel of 255 wild-type kinases (Homo sapiens, UniProt P24941); details: 1 µmol/L single concentration, cited from earlier work; for %-inhibition CDK2/CycA2: CDK2/CycA2 kinase assay; for %-inhibition CDK2/CycE1: CDK2/CycE1 kinase assay
# [9] = molecular target: panel of 255 wild-type kinases (Homo sapiens, UniProt P51451); details: BLK kinase assay, 1 µmol/L single concentration, cited from earlier work
# [10] = molecular target: panel of 255 wild-type kinases (Homo sapiens, UniProt Q8N4C8); details: MINK, 1 µmol/L single concentration, cited from earlier work
# [11] = molecular target: panel of 255 wild-type kinases (Homo sapiens, UniProt P31749); details: AKT1 kinase assay, 1 µmol/L single concentration, cited from earlier work
# [12] = molecular target: T1, panel of 255 wild-type kinases (Homo sapiens, UniProt Q9NZJ5); details: kinase PEK, 1 µmol/L single concentration, cited from earlier work
# T1 sequence (Q9NZJ5 30-1116): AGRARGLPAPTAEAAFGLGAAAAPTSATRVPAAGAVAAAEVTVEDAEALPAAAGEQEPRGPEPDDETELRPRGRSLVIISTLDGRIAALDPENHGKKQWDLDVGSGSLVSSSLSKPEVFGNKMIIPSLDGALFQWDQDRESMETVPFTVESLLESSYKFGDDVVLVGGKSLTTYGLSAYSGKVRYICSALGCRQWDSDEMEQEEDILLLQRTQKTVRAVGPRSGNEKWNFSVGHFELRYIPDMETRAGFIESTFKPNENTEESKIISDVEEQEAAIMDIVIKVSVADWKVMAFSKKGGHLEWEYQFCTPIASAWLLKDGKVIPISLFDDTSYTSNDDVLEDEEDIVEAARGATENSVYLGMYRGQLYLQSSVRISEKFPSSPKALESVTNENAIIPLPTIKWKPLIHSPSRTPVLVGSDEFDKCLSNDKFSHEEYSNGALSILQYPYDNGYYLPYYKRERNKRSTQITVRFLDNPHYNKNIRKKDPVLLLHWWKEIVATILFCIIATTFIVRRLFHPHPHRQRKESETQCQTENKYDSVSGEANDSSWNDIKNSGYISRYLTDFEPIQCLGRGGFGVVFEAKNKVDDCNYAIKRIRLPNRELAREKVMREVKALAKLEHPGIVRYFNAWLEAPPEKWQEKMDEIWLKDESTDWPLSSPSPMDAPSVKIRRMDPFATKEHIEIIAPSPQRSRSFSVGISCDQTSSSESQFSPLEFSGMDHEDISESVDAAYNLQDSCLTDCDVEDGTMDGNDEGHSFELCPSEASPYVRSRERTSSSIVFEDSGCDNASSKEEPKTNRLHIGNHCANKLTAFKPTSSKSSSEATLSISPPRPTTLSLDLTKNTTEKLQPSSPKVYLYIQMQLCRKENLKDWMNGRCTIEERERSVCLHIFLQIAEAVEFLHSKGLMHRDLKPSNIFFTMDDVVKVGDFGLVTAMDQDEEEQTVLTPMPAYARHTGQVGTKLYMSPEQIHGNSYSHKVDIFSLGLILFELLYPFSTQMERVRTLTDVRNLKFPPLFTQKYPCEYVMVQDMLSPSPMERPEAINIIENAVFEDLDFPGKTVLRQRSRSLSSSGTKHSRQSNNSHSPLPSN
# [13] = molecular target: panel of 255 wild-type kinases (Homo sapiens, UniProt P54646); details: AMPKα2/β1/γ1 kinase assay, 1 µmol/L single concentration, cited from earlier work
# [14] = molecular target: panel of 255 wild-type kinases (Homo sapiens, UniProt Q9Y463); details: kinase DYRK1B, 1 µmol/L single concentration, cited from earlier work
# [15] = molecular target: panel of 255 wild-type kinases (Homo sapiens, UniProt Q96SB4); details: kinase SRPK1, 1 µmol/L single concentration, cited from earlier work
# [16] = ref DOI: 10.1158/1535-7163.MCT-18-0877
# [17] = ref DOI: 10.1371/journal.pone.0092146
SMILES,"%-inhibition, NIM1K [1]","%-inhibition at 1 µmol/L, MAPKAPK2 [2, 16]","%-inhibition CDK2/CycA2 [8, 16]","%-inhibition CDK2/CycE1 [8, 16]","%-inhibition BLK [9, 16]","%-inhibition, MINK [10, 16]","%-inhibition at 1 µmol/L, PEK [12, 16]","%-inhibition AMPKα2/β1/γ1 [13, 16]","%-inhibition at 1 µmol/L, MAPKAPK2 [2, 17]","%-inhibition at 1 µmol/L, FER [3, 17]","%-inhibition AKT2 [4, 17]","%-inhibition, MST3 [5, 17]","%-inhibition at 1 µmol/L, CSK [6, 17]","%-inhibition at 1 µmol/L, SRPK1 [15, 17]","%-inhibition at 1 µmol/L, HIPK3 [7, 17]","%-inhibition CDK2/CycA2 [8, 17]","%-inhibition CDK2/CycE1 [8, 17]","%-inhibition, MINK [10, 17]","%-inhibition AKT1 [11, 17]","%-inhibition at 1 µmol/L, DYRK1B [14, 17]",other results
Cc1cc(Nc2ncc(Cl)c(Nc3ccccc3S(=O)(=O)C(C)C)n2)c(OC(C)C)cc1C1CCNCC1 [ceritinib],-1.37%,-14%,-5.32%,-7.57%,2%,1.46%,9.5%,40%,–,–,–,–,–,–,–,–,–,–,–,–,"%-inhibition at 1 µmol/L, FER [3, 16]: 100%; %-inhibition AKT2 [4, 16]: -4.7%; %-inhibition, MST3 [5, 16]: 31%; %-inhibition at 1 µmol/L, CSK [6, 16]: 3%; %-inhibition at 1 µmol/L, HIPK3 [7, 16]: 7.48%; %-inhibition AKT1 [11, 16]: -8%; %-inhibition at 1 µmol/L, DYRK1B [14, 16]: 11%"
C[C@@H](Oc1cc(-c2cnn(C3CCNCC3)c2)cnc1N)c1c(Cl)ccc(F)c1Cl [crizotinib],–,–,–,–,–,–,–,–,-17%,90%,-2.67%,11%,9%,4.55%,-6%,3%,-14%,0%,-7%,-3%,"%-inhibition at 1 µmol/L, PEK [12, 17]: 1.1%; %-inhibition AMPKα2/β1/γ1 [13, 17]: 27%"
CC(C)(C)c1nc(-c2cccc(NS(=O)(=O)c3c(F)cccc3F)c2F)c(-c2ccnc(N)n2)s1 [dabrafenib],–,–,–,–,–,–,–,–,–,22%,–,0.532%,98%,–,65%,–,–,-0.772%,–,29%,"%-inhibition BLK [9, 17]: 80%"
C=CC(=O)N1CCC[C@@H](n2nc(-c3ccc(Oc4ccccc4)cc3)c3c(N)ncnc32)C1 [ibrutinib],-2.33%,-13%,-12%,-8%,101%,-6.41%,7.47%,10%,–,–,–,–,–,–,–,–,–,–,–,–,"%-inhibition AKT2 [4, 16]: -3%; %-inhibition, MST3 [5, 16]: 8%; %-inhibition at 1 µmol/L, SRPK1 [15, 16]: 1.2%; %-inhibition at 1 µmol/L, HIPK3 [7, 16]: 1.67%; %-inhibition AKT1 [11, 16]: -9%; %-inhibition at 1 µmol/L, DYRK1B [14, 16]: 2%"
CO[C@@H]1[C@H](N(C)C(=O)c2ccccc2)C[C@H]2O[C@]1(C)n1c3ccccc3c3c4c(c5c6ccccc6n2c5c31)C(=O)NC4 [midostaurin],1.15%,-12%,52%,22%,84%,88%,11%,90%,–,–,–,–,–,–,–,–,–,–,–,–,"%-inhibition at 1 µmol/L, FER [3, 16]: 101%; %-inhibition at 1 µmol/L, CSK [6, 16]: 58%; %-inhibition at 1 µmol/L, SRPK1 [15, 16]: 1.28%"
CC(=O)Nc1cccc(-n2c(=O)n(C3CC3)c(=O)c3c(Nc4ccc(I)cc4F)n(C)c(=O)c(C)c32)c1 [trametinib],–,–,–,–,–,–,–,–,-0.335%,4.28%,-8%,1.75%,-2.83%,-0.0691%,0.0849%,24%,2.59%,-1.8%,-3%,3.34%,"%-inhibition BLK [9, 17]: -2.79%; %-inhibition at 1 µmol/L, PEK [12, 17]: 1.13%; %-inhibition AMPKα2/β1/γ1 [13, 17]: 1.21%"
CCCS(=O)(=O)Nc1ccc(F)c(C(=O)c2c[nH]c3ncc(-c4ccc(Cl)cc4)cc23)c1F [vemurafenib],–,–,–,–,–,–,–,–,-16%,11%,-3%,-1.73%,76%,2%,-6%,-3%,-5%,10%,-4.52%,-1.74%,"%-inhibition BLK [9, 17]: 52%; %-inhibition at 1 µmol/L, PEK [12, 17]: 11%; %-inhibition AMPKα2/β1/γ1 [13, 17]: 6.49%"
